Target: thromboxane A2 receptor (TBXA2R) (Gα12) (Homo sapiens, UniProt P21731)
Assay: BRET² G protein dissociation assay, TBXA2R with Gα12
Assay type: cell-based
Conditions: for Mean (plotted), G protein dissociation BRET² signal: TBXA2R-G12, Fig. 5c source data
Procedure: G protein dissociation assays were performed according to the original protocols of the TRUPATH BRET² assay[47],[87] but with subtle modifications as previously described[61],[88],[89]. All reagents and cells were obtained from Thermo Fisher Scientific unless indicated otherwise. The coding sequences for the G protein biosensors[47] (Gα12-Rluc8, Gα13-Rluc8, wt Gβ3, and Gγ9-GFP), the wt GPR55, the construct used for cryo-EM (with GFP bearing a G67A mutation to disrupt fluorescence properties[48] for BRET² assays), GPR55 binding pocket mutants (G152^4.56F, G152^4.56W, N171^ECL2Q, N171^ECL2A, T176^5.33A, R253^6.62A), and the wt TBXA2R were codon-optimized for Homo sapiens, gene-synthesized, and sub-cloned into pcDNA^TM3.1(+) between NheI and HindIII restriction sites by GeneArt (Thermo Fisher Scientific). […] Freshly grown cells were washed with Dulbecco’s Balanced Salt Solution (DPBS, cat. #14200075) and detached using trypsin-ethylenediaminetetraacetic acid (trypsin-EDTA) (cat. #25300-062). Then, the cells were reconstituted to 500,000 cells per mL with fresh medium, and 1,000,000 cells were seeded into each well of a 6-well plate. After 3 h incubation at 37 °C and 5% CO2, adherent cells were transfected with 600 ng DNA (1:1:1:1 ratio of plasmid DNA for GPR55, wt Gβ3, Gγ9-GFP, and Gα12-Rluc8 or Gα13-Rluc8). Plasmid DNA was mixed with 1.5 µL Lipofectamine^TM 2000 (cat. #11668027) in Opti-MEM^TM medium (cat. #31985062) and incubated for 20 min. Then, the mixture was added to each well of the 6-well plate following 24 h incubation at 37 °C and 5% CO2. Transfected cells were washed with DPBS, detached using EDTA (Versene, cat. #15040066), and reconstituted into fresh medium at 500,000 cells mL^−1. From this suspension, 50,000 cells were seeded into each well of a white-bottom 96-well plate (Nunc^TM MicroWell^TM 96 wells, cat. #136101) following overnight incubation at 37 °C and 5% CO2. Then, the adherent cells were washed with assay medium [Hank’s balanced salt solution (HBSS, cat. #14065056) plus 20 mM HEPES pH 7.4 (cat. #15630056)] and finally reconstituted into 50 µL of the same medium. […] Methoxy e-Coelenterazine was used as luciferase substrate (Prolume Purple, NanoLight Technology, cat. #369), reconstituted at 1 mM in methanol and diluted to 37.5 µM with assay buffer (7.5 µM final assay concentration). The assay was started by the addition of 20 µL luciferase substrate to each well of the assay plate using a Multidrop^TM Combi reagent dispenser (Thermo Fisher Scientific), followed by 5 min incubation at room temperature. Then, 30 µL of agonist dilutions or DMSO control was added (final DMSO concentration 1.5%), followed by an additional 5 min incubation at room temperature. BRET² measurements were performed with a PHERAstar® FSX microplate reader (BMG LABTECH) using a BRET² filter (donor emission 370–450 nm, acceptor emission 500–530 nm) at the maximum fluorescence gain of 3600. BRET² ratios were calculated by dividing GFP emission signals from Rluc8 emission counts. Buffer-DMSO controls were subtracted from each data point to calculate ΔBRET² ratios. The half-maximal effective concentration (potency, EC50) and maximal effect (efficacy, Emax) were determined by sigmoidal dose-response curve fit with variable slope.

thromboxane A2 receptor (TBXA2R) (Gα12), sequence (P21731 whole entry, species assumed): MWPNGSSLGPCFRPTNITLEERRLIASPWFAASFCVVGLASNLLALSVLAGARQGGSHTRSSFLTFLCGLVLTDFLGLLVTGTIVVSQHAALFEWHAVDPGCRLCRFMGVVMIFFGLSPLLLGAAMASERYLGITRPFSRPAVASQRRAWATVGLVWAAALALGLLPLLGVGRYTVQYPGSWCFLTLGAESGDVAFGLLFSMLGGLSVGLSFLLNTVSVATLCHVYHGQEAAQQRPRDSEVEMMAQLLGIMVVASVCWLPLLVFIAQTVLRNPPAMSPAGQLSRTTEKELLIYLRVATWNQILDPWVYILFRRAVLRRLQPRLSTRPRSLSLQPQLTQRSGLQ
thromboxane A2 receptor (TBXA2R) (Gα12), sequence (Q03113 whole entry partner, species assumed): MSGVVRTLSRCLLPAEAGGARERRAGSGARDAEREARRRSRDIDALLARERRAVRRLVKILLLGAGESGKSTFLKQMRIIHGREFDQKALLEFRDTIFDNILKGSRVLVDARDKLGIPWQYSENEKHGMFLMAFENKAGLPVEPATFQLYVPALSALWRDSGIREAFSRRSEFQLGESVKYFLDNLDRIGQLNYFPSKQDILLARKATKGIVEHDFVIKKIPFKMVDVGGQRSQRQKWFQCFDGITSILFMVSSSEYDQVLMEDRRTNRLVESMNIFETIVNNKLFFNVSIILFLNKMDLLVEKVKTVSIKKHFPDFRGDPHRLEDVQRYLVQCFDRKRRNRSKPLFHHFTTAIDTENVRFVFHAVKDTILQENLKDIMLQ
thromboxane A2 receptor (TBXA2R) (Gα12), sequence (P16520 whole entry partner, species assumed): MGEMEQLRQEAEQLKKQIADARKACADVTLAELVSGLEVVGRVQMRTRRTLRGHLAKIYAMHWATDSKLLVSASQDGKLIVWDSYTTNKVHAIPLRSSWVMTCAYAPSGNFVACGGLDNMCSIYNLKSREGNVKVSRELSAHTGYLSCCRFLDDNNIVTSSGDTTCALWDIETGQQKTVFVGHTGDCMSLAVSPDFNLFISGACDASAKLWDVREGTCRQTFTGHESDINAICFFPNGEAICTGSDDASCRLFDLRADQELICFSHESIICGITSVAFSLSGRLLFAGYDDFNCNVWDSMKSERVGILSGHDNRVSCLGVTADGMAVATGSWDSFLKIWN
thromboxane A2 receptor (TBXA2R) (Gα12), sequence (O14610 1-66 partner limits assumed, species assumed): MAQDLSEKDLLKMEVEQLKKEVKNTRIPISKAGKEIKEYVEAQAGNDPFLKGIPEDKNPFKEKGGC

Row | SMILES | Mean (plotted), G protein dissociation BRET² signal (concentration 300 pM) | Mean (plotted), G protein dissociation BRET² signal (concentration 1e-9 M) | Mean (plotted), G protein dissociation BRET² signal (concentration 3e-9 M) | Mean (plotted), G protein dissociation BRET² signal (concentration 1e-8 M) | Mean (plotted), G protein dissociation BRET² signal (concentration 3e-8 M) | Mean (plotted), G protein dissociation BRET² signal (concentration 1e-7 M) | Mean (plotted), G protein dissociation BRET² signal (concentration 3e-7 M) | Mean (plotted), G protein dissociation BRET² signal (concentration 1e-6 M) | Mean (plotted), G protein dissociation BRET² signal (concentration 3e-6 M) | Mean (plotted), G protein dissociation BRET² signal (concentration 1e-5 M) | Mean (plotted), G protein dissociation BRET² signal (concentration 3e-5 M) | Efficacy ± SEM (%) (TBXA2, Gα12) | pEC50 ± SEM (TBXA2, Gα12) | EC50 (TBXA2R via Gα12, read-out: potency (EC50)) | Mean (plotted), G protein dissociation BRET² signal (concentration 10 pM) | Mean (plotted), G protein dissociation BRET² signal (concentration 30 pM) | Mean (plotted), G protein dissociation BRET² signal (concentration 100 pM)
1 | Cc1cccc(N2CCN(C(=O)c3cc(S(=O)(=O)N(C)C)ccc3N3CCCC3)CC2)c1C [ML184, 3-[[4-(2,3-dimethylphenyl)-1-piperazinyl]carbonyl]-N,N-dimethyl-4-(1-pyrrolidinyl)benzenesulfonamide] | 0.004412 | 0.004455 | 0.002143 | 0.001783 | 0.001091 | -3.229e-5 | 0.0009853 | 0.004147 | 0.0053 | 0.009359 | 0.007653 | – | – | – | – | – | –
2 | CCCCC[C@H](O)/C=C/[C@@H]1[C@@H](C/C=C\CCCC(=O)O)[C@H]2CO[C@@H]1C2 [U-46619] | -0.007 | -0.0104 | -0.01228 | -0.02818 | -0.04678 | -0.06592 | -0.07783 | -0.08315 | – | – | – | 100 ± 8% | 7.62 ± 0.15 | 24 nM | 0.003425 | 0.003325 | -0.00015
